Experiments:
[1] = target: T1, human serum albumin (HSA) (Homo sapiens, UniProt P02768); assay: Membrane ultrafiltration with HSA; assay type: binding; settings: 1:2 protein-to-complex ratio (25 μM HSA, 50 μM complex), pH 7.4
T1 construct: purchased Sigma-Aldrich/Merck A8763
Protocol: To characterize the binding strength of the complex to HSA, the UV–vis spectrum of the complex was recorded in the presence of different amounts of the protein (Figure ). The gradual spectral changes leveled off at about 0.5 equiv of the protein, indicating at least two binding sites. However, from these spectral changes, no formation constants could be calculated due to the overlapping processes.
Milli-pore, Amicon Ultra-0.5 membrane filters (10 kDa) were used to separate samples containing 25 μM HSA and 50 μM complex (1:2 biomolecule-to-complex ratio) into low and high molecular mass (LMM and HMM) fractions as described in our former work. UV–vis spectrophotometry was used to determine the concentration of the nonbound compounds in the LMM fractions by comparing to a reference sample without the protein.

[2] = target: T1, human serum albumin (HSA); assay: Tryptophan (Trp214) fluorescence quenching assay with HSA; assay type: binding; settings: 1 μM HSA
Protocol: HSA contains only one tryptophan residue (Trp214), which is located in a hydrophobic pocket in subdomain IIA of the protein. When a compound binds to HSA, it can affect the local environment of Trp214, leading to a decrease in its fluorescence intensity.
Fluorescence measurements were carried out on a Fluoromax (Horiba Jobin Yvon, Longjumeau, France) spectrofluorometer using a 1 cm × 1 cm quartz cuvette. Samples contained 1 μM HSA and the complex concentration was varied between 0 and 18 μM. The measurements were carried out as titration. The excitation wavelength was 295 for the Trp214 quenching measurements, and the determined quenching constant for HSA–complex species (1:1) was obtained using the computer program HypSpec. Calculations always were based on data obtained from at least two independent measurements. Self-absorbance and inner filter effect had to be considered, and corrections were made as was described in our former works. ,

Colo205 cells = assay: MTT cytotoxicity assay, Colo205; assay type: cell-based, human; settings: 72 h incubation, MTT; read-out: IC50 Colo205
Protocol: Its cytotoxicity was determined in the human HeLa cervical cancer cell line, the drug-sensitive Colo205 and its resistant counterpart, the ABCB1 expressing Colo320 colon adenocarcinoma cancer cell lines, using the colorimetric 3-(4,5-dimethylthiazol-2-yl)-2,5-diphenyltetrazolium bromide (MTT) test. To investigate the selectivity toward cancer cells, the noncancerous fibroblast CCD-19Lu cell line was included.
Drug-sensitive Colo205 (ATCC-CCL-222) and ABCB1 (MDR1)-LRP expressing and doxorubicin-resistant Colo320/MDR-LRP (ATCC-CCL-220.1) human colonic adenocarcinoma cell lines were purchased from LGC Promochem (Teddington, U.K.). The cells were cultured in RPMI 1640 medium supplemented with 10% heat-inactivated fetal bovine serum, 2 mM L-glutamine, 1 mM Na-pyruvate, and 10 mM HEPES.
The tested compound was dissolved in DMSO to prepare a 5 mM stock solution, which was diluted in complete culture medium, to study the effect of compounds on cell growth of human colonic adenocarcinoma cell lines. Doxorubicin was used as the positive control. The cells were treated with a trypsin-versene (EDTA) solution. Cells were adjusted to a density of 1 × 10^4 cells in 100 μL of the appropriate culture medium and were added to each well, with the exception of the medium control wells. Except for the semiadherent Colo205 and Colo320 cell lines, the other adherent cell lines were seeded 24 h prior to the assay. Then, stock solutions were diluted in the appropriate culture medium, and 2-fold serial dilutions of compounds were prepared in 100 μL of the medium, horizontally. The final volume of the wells containing compounds and cells was 200 μL. The plates were incubated at 37 °C for 72 h; at the end of the incubation period, 20 μL of MTT solution (from a stock solution of 5 mg/mL) was added to each well. […] Cell growth was determined by measuring the optical density (OD) at 540/630 nm with a Multiscan EX ELISA reader (Thermo Labsystems, Cheshire, WA). […]

E. coli ATCC 25922 = assay: Antibacterial MIC assay, E. coli ATCC 25922; assay type: cell-based, Escherichia coli; settings: 18 h, visual inspection
Protocol: The antibacterial effect of the complex was tested against the Gram-negative strain Escherichia coli (E. coli) ATCC 25922, the Gram-positive reference strain Staphylococcus aureus (S. aureus) ATCC 25923, and the methicillin-resistant S. aureus MRSA ATCC 43300 strain. MRSA strains are responsible for several difficult-to-treat hospital-acquired infections.
The following bacterial strains were used in our experiments: Gram-positive S. aureus American Type Culture Collection (ATCC) 25923 as the methicillin-susceptible reference bacterial strain; methicillin-resistant S. aureus ATCC 43300 (MRSA) strain; E. coli ATCC 25922 as a Gram-negative bacterial strain.
MIC values of the complexes were determined in 96-well plates based on the Clinical and Laboratory Standard Institute guidelines (CLSI guidelines). The stock solutions of the compound (dissolved in DMSO at 5 mM concentration) were diluted in 100 μL of Mueller Hinton Broth. Then, 10^–4 dilution of an overnight bacterial culture in 100 μL of medium was added to each well, with the exception of the medium control wells.

MCF-10A neoT cells = assay: MTS cell viability assay; settings: 24 h, concentrations used to monitor ECM degradation
Protocol: The cells were seeded at 6 × 10^4 cells/well into a 96-well microplate and incubated overnight for attachment. The cells were then treated with the inhibitor (at 1, 2.5, or 5 μM) or DMSO (0.1%) in 100 μL for 24 h. After incubation, 10 μL of the reagent MTS was added to the wells, and the absorbance of formazan was measured at 492 nm on a Tecan Infinite M1000 instrument (Mannedorf, Switzerland). Cell viability (%) was expressed as the ratio between absorbance in the presence of the compounds and that in the presence of DMSO. All assays were performed in quadruplicate and repeated twice.

T1 sequence (P02768 25-609): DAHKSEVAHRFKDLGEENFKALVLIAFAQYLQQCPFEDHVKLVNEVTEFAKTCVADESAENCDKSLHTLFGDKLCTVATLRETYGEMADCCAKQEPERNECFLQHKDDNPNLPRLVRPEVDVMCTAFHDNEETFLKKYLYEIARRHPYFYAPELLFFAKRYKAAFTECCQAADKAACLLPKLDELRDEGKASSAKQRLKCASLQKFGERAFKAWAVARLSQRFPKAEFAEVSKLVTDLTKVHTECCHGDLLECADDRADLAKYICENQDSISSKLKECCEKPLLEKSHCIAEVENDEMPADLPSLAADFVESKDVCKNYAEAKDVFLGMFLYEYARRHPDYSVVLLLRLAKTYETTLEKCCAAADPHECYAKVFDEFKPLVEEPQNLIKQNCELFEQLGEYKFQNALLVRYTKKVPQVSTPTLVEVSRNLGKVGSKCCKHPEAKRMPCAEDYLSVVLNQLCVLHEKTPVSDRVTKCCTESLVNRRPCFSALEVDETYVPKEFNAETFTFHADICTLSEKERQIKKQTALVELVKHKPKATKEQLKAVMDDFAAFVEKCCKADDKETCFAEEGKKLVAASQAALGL

SMILES: N#Cc1ccccc1.[C-]#[O+].[C-]#[O+].[C-]#[O+].[O-]n1ccccc1=S.[Re+] [complex 4, fac-[Re(CO)3(pth)(benzonitrile)]]
- unbound complex in low molecular mass fraction [1]: ~10%
- log KQ quenching constant ([2]; 0–18 μM complex, pH 7.4 (PBS), 25 °C): 6.3 ± 0.1
- degree of HSA fluorescence quenching ([2]; ∼4 equivalents of complex, λEX 295 nm, pH 7.4): ~85%
- IC50 (Colo205 cells): 9.22 ± 0.53 µM
- MIC E. coli ATCC 25922 (E. coli ATCC 25922): 50 µM
- effect on viability of MCF-10A neoT cells (MCF-10A neoT cells): did not impair the viability
